Key:
HCT-116 cells = assay: Cell growth, CellTiter-Glo Luminescent Cell Viability Assay, HCT-116; assay type: cell-based; details: Homo sapiens, HCT116 cells, 72 h incubation, read-out: IC50 antiproliferative assay HCT116
Text: (§1) CellTiter-Glo® Luminescent Cell Viability Assay (Promega) is a homogeneous method of determining the number of viable cells in culture based on quantitation of the present ATP, which indicates the presence of metabolically active cells. The homogeneous assay procedure involves addition of a single reagent (CellTiter-Glo® Reagent) directly to the cells, which leads to cell lysis and generation of a luminescent signal proportional to the amount of the ATP and the number of cells present in culture. The assay relies on the properties of a proprietary thermostable luciferase (Ultra-Glo® recombinant luciferase), which generates a luminescent signal.
(§2) K562, A549 and HCT-116 cells, in exponential growth, were incubated for 72 h with different concentrations of the inhibitors. After 72 h, a volume of CellTiter-Glo® Reagent equal to the volume of cell culture medium was added. The content was mixed for 2 min to induce cell lysis. The luminescence was recorded after further 10 min at RT in order to obtain a stabilized luminescent signal.
(§3) The IC50 was calculated using GraphPad Software.
(§4) IC50 results were allocated to one of 3 ranges as follows: Range A: IC50≦1.0 μM; Range B: from 1.0 to 3.0 μM; Range C: IC50≧3.0 μM.

[1] = test system: HDAC (nuclear fraction of Hela cells); assay: Assay of enzyme inhibition of HDAC (BIOMOL Kit); assay type: biochemical; details: substrate 200 μM, 15 min at RT
Procedure: 2.2 Assay of Enzyme Inhibition of HDAC
The in-vitro activity of HDAC inhibitors was assayed using a BIOMOL Kit, according to the instructions from the manufacturer (Biomolecular Research Laborator). 15 μl of 30× diluted nuclear fraction of Hela cells, was diluted to 50 μl with the assay buffer containing the HDAC inhibitor and the substrate (lysine with acetylated amino group on the side chain) at a concentration of 200 μM. The samples were incubated for 15 min at RT and then exposed to a developer (10 min at RT). In this last step a fluorophore was produced, whose fluorescence was measured using an excitation wavelength of 355 nm and an emission at 460 nm. The IC50 was calculated using GraphPad Software.

A549 cells = assay: Cell growth, CellTiter-Glo Luminescent Cell Viability Assay, A549; assay type: cell-based; details: Homo sapiens, 72 h incubation, read-out: IC50 antiproliferative assay A549
Text: as §1, §2, §3, §4

K562 cells = assay: Cell growth, CellTiter-Glo Luminescent Cell Viability Assay, K562; assay type: cell-based; details: Homo sapiens, 72 h incubation, read-out: IC50 antiproliferative assay K562
Text: as §1, §2, §3, §4

Row | IC50 (HCT-116 cells) | IC50 [1] | IC50 (A549 cells) | IC50 (K562 cells) | SMILES
1 | ≥ 3000 nM | 100 to 1000 nM | ≥ 3000 nM | ≥ 3000 nM | CS(=O)(=O)N1CCC2(CC1)CC(=O)c1cc(/C=C/C(=O)NO)ccc1O2 [Example 43, (E)-3-{1′-Methanesulfonyl-4-oxo-spiro[chromane-2,4′-piperidine]-6-yl}-N-hydroxy-acrylamide]
2 | ≤ 1000 nM | 100 to 1000 nM | ≤ 1000 nM | ≤ 1000 nM | CC(C)N1CCC2(CC1)CC(=O)c1cc(/C=C/C(=O)NO)ccc1O2 [Example 69, (E)-3-{1′-Isopropyl-4-oxo-spiro[chromane-2,4′-piperidine]-6-yl}-N-hydroxy-acrylamide]
3 | ≤ 1000 nM | < 100 nM | ≤ 1000 nM | ≤ 1000 nM | CNc1ccc(CCN2CCC3(CC2)CC(=O)c2cc(/C=C/C(=O)NO)ccc2O3)cc1 [Example 63, (E)-3-{1′-[2-(4-Methylamino-phenyl)-ethyl]-4-oxo-spiro[chromane-2,4′-piperidine]-6-yl}-N-hydroxy-acrylamide]
4 | ≤ 1000 nM | < 100 nM | 1000 to 3000 nM | ≤ 1000 nM | O=C(/C=C/c1ccc2c(c1)C(=O)NC1(CCN(Cc3ccccc3)CC1)O2)NO [Example 25, (E)-3-{1′-Benzyl-3,4-dihydro-4-oxo-spiro[2H-(1,3)-benzoxazine-2,4′-piperidin]-6-yl}-N-hydroxy-acrylamide]
5 | 1000 to 3000 nM | < 100 nM | 1000 to 3000 nM | ≥ 3000 nM | O=C(/C=C/c1ccc2c(c1)C(=O)CC1(CCNCC1)O2)NO [Example 1, (E)-3-{4-oxo-spiro[chromane-2,4′-piperidine]-6-yl}-N-hydroxy-acrylamide]
6 | ≤ 1000 nM | 100 to 1000 nM | 1000 to 3000 nM | ≤ 1000 nM | O=C(/C=C/c1ccc2c(c1)C(=O)CC1(CCN(Cc3ccccc3F)CC1)O2)NO [Example 34, (E)-3-{1′-(2-Fluoro-benzyl)-4-oxo-spiro[chromane-2,4′-piperidine]-6-yl}-N-hydroxy-acrylamide]
7 | ≤ 1000 nM | < 100 nM | ≤ 1000 nM | ≤ 1000 nM | O=C(/C=C/c1ccc2c(c1)C(=O)CC1(CCN(CCc3ccc(F)cc3)CC1)O2)NO [Example 56, (E)-3-{1′-[2-(4-Fluoro-phenyl)-ethyl]-4-oxo-spiro[chromane-2,4′-piperidine]-6-yl}-N-hydroxy-acrylamide]
8 | ≥ 3000 nM | 100 to 1000 nM | ≥ 3000 nM | ≥ 3000 nM | CCNC(=O)N1CCC2(CC1)CC(=O)c1cc(/C=C/C(=O)NO)ccc1O2 [Example 46, (E)-3-{1′-Ethylcarbamoyl-4-oxo-spiro[chromane-2,4′-piperidine]-6-yl}-N-hydroxy-acrylamide]
9 | ≤ 1000 nM | 100 to 1000 nM | 1000 to 3000 nM | 1000 to 3000 nM | CON=C1CC2(CCN(Cc3ccccc3)CC2)Oc2ccc(/C=C/C(=O)NO)cc21 (racemic) [Example 18, (E)-3-{1′-Benzyl-4-methyloxyimino-spiro[chromane-2,4′-piperidine]-6-yl}-N-hydroxy-acrylamide]
10 | 1000 to 3000 nM | 100 to 1000 nM | 1000 to 3000 nM | 1000 to 3000 nM | O=C(/C=C/c1ccc2c(c1)C(=O)CC1(CCN(Cc3ccccc3Cl)CC1)O2)NO [Example 37, (E)-3-{1′-(2-Chloro-benzyl)-4-oxo-spiro[chromane-2,4′-piperidine]-6-yl}-N-hydroxy-acrylamide]
11 | ≤ 1000 nM | 100 to 1000 nM | 1000 to 3000 nM | ≤ 1000 nM | O=C(/C=C/c1ccc2c(c1)C(=O)NC1(CCN(Cc3ccc(F)cc3)CC1)O2)NO [Example 74, (E)-3-{1′-(4-Fluoro-benzyl)-3,4-dihydro-4-oxo-spiro[2H-(1,3)-benzoxazine-2,4′-piperidin]-6-yl}-N-hydroxy-acrylamide]
12 | ≤ 1000 nM | < 100 nM | ≤ 1000 nM | ≤ 1000 nM | O=C(/C=C/c1ccc2c(c1)C(=O)CC1(CCN(CCc3c[nH]c4ccccc34)CC1)O2)NO [Example 49]

More lines, now with the values behind:

Row | SMILES | IC50 (HCT-116 cells) | IC50 [1] | IC50 (A549 cells) | IC50 (K562 cells)
13 | O=C(/C=C/c1ccc2c(c1)C(=O)CC1(CCN(Cc3ccc(Cl)cc3)CC1)O2)NO [Example 39, (E)-3-{1′-(4-Chloro-benzyl)-4-oxo-spiro[chromane-2,4′-piperidine]-6-yl}-N-hydroxy-acrylamide] | ≤ 1000 nM | 100 to 1000 nM | 1000 to 3000 nM | ≤ 1000 nM
14 | O=C(/C=C/c1ccc2c(c1)C(=O)C1(CCN(C(=O)c3ccccc3)CC1)O2)NO [Example 23, (E)-3-{1′-Benzoyl-3-oxo-spiro[benzofuran-2(3H), 4′-piperidin]-5-yl}-N-hydroxy-acrylamide] | ≥ 3000 nM | > 1000 nM | ≥ 3000 nM | ≥ 3000 nM
15 | O=C(/C=C/c1ccc2c(c1)C(=O)CC1(CCN(Cc3ccccn3)CC1)O2)NO [Example 40, (E)-3-{1′-(Pyridin-2-ylmethyl)-4-oxo-spiro[chromane-2,4′-piperidine]-6-yl}-N-hydroxy-acrylamide] | ≤ 1000 nM | 100 to 1000 nM | 1000 to 3000 nM | ≤ 1000 nM
16 | O=C(/C=C/c1ccc2c(c1)C(=NOCc1ccccc1)CC1(CCN(Cc3ccccc3)CC1)O2)NO (racemic) [Example 17, (E)-3-{1′-Benzyl-4-benzyloxyimino-spiro[chromane-2,4′-piperidine]-6-yl}-N-hydroxy-acrylamide] | 1000 to 3000 nM | > 1000 nM | 1000 to 3000 nM | 1000 to 3000 nM
17 | O=C(/C=C/c1ccc2c(c1)C(=O)CC1(CCN(CCc3ccc(Cl)cc3)CC1)O2)NO [Example 57, (E)-3-{1′-[2-(4-Chloro-phenyl)-ethyl]-4-oxo-spiro[chromane-2,4′-piperidine]-6-yl}-N-hydroxy-acrylamide] | ≤ 1000 nM | 100 to 1000 nM | ≤ 1000 nM | ≤ 1000 nM
18 | CN1CCC2(CC1)Oc1ccc(/C=C/C(=O)NO)cc1C(=O)N2C [Example 78, (E)-3-{1′-Methyl-3,4-dihydro-3-methyl-4-oxo-spiro[2H-(1,3)-benzoxazine-2,4′-piperidin]-6-yl}-N-hydroxy-acrylamide] | 1000 to 3000 nM | 100 to 1000 nM | ≥ 3000 nM | 1000 to 3000 nM
19 | O=C(/C=C/c1ccc2c(c1)C(=O)CC1(CCN(C(=O)c3ccccc3)CC1)O2)NO [Example 4, (E)-3-{1′-Benzoyl-4-oxo-spiro[chromane-2,4′-piperidine]-6-yl}-N-hydroxy-acrylamide] | 1000 to 3000 nM | 100 to 1000 nM | ≥ 3000 nM | 1000 to 3000 nM
20 | COc1cccc(CCN2CCC3(CC2)CC(=O)c2cc(/C=C/C(=O)NO)ccc2O3)c1 [Example 60, (E)-3-{1′-[2-(3-Methoxy-phenyl)-ethyl]-4-oxo-spiro[chromane-2,4′-piperidine]-6-yl}-N-hydroxy-acrylamide] | ≤ 1000 nM | 100 to 1000 nM | ≤ 1000 nM | ≤ 1000 nM
21 | CCOC(=O)N1CCC2(CC1)CC(=O)c1ccc(/C=C/C(=O)NO)cc1O2 [Example 12, (E)-3-{1′-Ethyloxycarbonyl-4-oxo-spiro[chromane-2,4′-piperidine]-7-yl}-N-hydroxy-acrylamide] | ≥ 3000 nM | 100 to 1000 nM | 1000 to 3000 nM | 1000 to 3000 nM
22 | O=C(/C=C/c1ccc2c(c1)C(=O)CC1(CCN(CCc3ccccc3)CC1)O2)NO [Example 55, (E)-3-{1′-(2-Phenyl-ethyl)-4-oxo-spiro[chromane-2,4′-piperidine]-6-yl}-N-hydroxy-acrylamide] | ≤ 1000 nM | 100 to 1000 nM | ≤ 1000 nM | ≤ 1000 nM
23 | Cc1cccc(CN2CCC3(CC2)CC(=O)c2cc(/C=C/C(=O)NO)ccc2O3)c1 [Example 29, (E)-3-{1′-(3-Methyl-benzyl)-4-oxo-spiro[chromane-2,4′-piperidine]-6-yl}-N-hydroxy-acrylamide] | ≤ 1000 nM | 100 to 1000 nM | 1000 to 3000 nM | ≤ 1000 nM
24 | O=C(/C=C/c1ccc2c(c1)C(=O)CC1(CCN(Cc3ccccc3)CC1)O2)NO [Example 2, (E)-3-{1′-Benzyl-4-oxo-spiro[chromane-2,4′-piperidine]-6-yl}-N-hydroxy-acrylamide] | ≤ 1000 nM | 100 to 1000 nM | ≤ 1000 nM | ≤ 1000 nM
25 | CCOC(=O)N1CCC2(CC1)Oc1ccc(/C=C/C(=O)NO)cc1C2=O [Example 24, (E)-3-{1′-Ethyloxycarbonyl-3-oxo-spiro[benzofuran-2(3H), 4′-piperidin]-5-yl}-N-hydroxy-acrylamide] | ≥ 3000 nM | > 1000 nM | ≥ 3000 nM | 1000 to 3000 nM
